Assay results: EP0022478B1, “Polyhydro-3,7-dimethyl-8-(2-(tetrahydro-4-hydroxy-6-oxo-2H-pyran-2-yl)-ethyl)-1-naphthylenyl-2-methylbutanoates, corresponding hydroxy acids, process for preparing and pharmaceutical compositions containing the same” (Merck & Co., Inc., priority 1979, dated 1981)
Structures can show the parent of a compound that is named as a salt. Where two headings read alike, the source gives them in different places.

How the values were obtained:
cholesterol synthesis = assay: In vivo inhibition of cholesterol synthesis (14C acetate into 14C cholesterol); design: species or system male Holtzman rats; settings: 14C acetate IP after one hour, bled 50 minutes later
Protocol: Groups of male Holtzman rats were dosed with either 5% emulphor in saline or test compound in emulphor by stomach tube. After one hour 80 µCi of ^14C acetate/kg was given IP. The rats were bled 50 minutes later and ^14C cholesterol was determined as a measure of sterol synthesis: […]

mouse L―M cells = target: T1, mouse L―M cells (Mus musculus, UniProt Q01237); assay: Inhibition of sterol synthesis in cell culture (14C sterol from 14C acetic acid); format: cell-based
T1 sequence (Q01237 1-887): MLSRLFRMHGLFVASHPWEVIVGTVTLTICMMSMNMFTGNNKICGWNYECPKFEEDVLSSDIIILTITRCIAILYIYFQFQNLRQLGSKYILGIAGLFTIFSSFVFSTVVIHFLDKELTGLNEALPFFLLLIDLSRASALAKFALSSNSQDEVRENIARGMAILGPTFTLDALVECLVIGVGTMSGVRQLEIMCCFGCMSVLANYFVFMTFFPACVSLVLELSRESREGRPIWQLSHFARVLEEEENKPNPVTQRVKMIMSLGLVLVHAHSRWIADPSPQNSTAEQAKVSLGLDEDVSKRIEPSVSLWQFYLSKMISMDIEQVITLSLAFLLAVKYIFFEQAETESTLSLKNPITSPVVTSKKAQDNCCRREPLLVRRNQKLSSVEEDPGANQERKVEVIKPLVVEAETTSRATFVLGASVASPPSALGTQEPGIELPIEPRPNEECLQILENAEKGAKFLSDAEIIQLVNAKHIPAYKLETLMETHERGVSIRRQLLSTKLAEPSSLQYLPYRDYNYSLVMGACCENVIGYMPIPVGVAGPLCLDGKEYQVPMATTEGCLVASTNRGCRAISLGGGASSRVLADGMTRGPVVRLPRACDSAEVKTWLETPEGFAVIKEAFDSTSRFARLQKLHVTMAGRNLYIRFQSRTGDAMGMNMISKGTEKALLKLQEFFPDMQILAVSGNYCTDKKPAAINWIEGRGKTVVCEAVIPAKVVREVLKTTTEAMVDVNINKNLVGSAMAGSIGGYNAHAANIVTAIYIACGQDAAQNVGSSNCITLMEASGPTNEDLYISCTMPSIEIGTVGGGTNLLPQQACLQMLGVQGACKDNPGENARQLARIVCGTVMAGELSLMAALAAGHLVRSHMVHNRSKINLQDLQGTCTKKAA
Protocol: The procedure of A. W. Alberts et al., J. Biol. Chem. 249: 5241 (1974) measuring the quantity of ^14C sterol biosynthesis frofdm ^14C acetic acid in mouse L―M cells in culture was employed with modification. The test compound in 10 µl DMSO was added to the monolayer cultures with 5 µCi of ^14C acetate. After a 3 hour incubation, the cells were saponified and the ^14C sterol extracted and isolated by thin layer chromatography on silica gel using petroleum ether-diethyl ether-acetic acid (75:25:1). The region on the plate containing ^14C sterol was identified by staining with 12 and the ^14C content determined by liquid scintillation counting.

[1] = Stability of the hydroxy acid on standing
HMG-CoA Reductase = target: T2, HMG-CoA Reductase (Rattus norvegicus, UniProt P51639); assay: In vitro inhibition of HMG Coenzyme A reductase, Beg method modified by 5 min preincubation of enzyme with inhibitor; format: biochemical; settings: modified procedure; read-out: IC50 in inhibiting HMG-CoA Reductase
T2 sequence (P51639 1-887): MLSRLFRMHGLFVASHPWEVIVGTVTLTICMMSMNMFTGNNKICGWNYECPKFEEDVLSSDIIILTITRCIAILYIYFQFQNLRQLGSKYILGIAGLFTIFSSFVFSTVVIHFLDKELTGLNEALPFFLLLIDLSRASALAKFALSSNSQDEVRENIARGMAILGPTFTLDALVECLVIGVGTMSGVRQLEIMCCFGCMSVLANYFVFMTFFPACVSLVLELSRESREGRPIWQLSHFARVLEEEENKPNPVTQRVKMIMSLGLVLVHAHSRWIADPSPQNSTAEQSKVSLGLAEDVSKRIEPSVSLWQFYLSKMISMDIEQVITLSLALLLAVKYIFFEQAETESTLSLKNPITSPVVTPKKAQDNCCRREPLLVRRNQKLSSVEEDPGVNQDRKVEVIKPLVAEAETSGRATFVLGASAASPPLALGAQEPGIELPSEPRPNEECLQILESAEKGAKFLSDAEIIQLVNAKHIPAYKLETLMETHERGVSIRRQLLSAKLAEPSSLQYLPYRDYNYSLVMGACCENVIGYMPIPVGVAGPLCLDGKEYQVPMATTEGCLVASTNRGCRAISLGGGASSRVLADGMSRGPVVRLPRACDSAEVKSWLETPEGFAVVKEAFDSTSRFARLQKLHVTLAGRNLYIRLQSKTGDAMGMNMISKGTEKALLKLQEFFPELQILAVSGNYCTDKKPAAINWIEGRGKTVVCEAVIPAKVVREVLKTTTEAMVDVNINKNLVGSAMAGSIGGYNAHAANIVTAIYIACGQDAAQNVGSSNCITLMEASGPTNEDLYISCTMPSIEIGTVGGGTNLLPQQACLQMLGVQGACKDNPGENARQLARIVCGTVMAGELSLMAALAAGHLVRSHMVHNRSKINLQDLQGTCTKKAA
Protocol: The method of Beg et al., FEBS Letters, 80 123 (1977) was modified slightly by incubating the enzyme with the inhibitor for five minutes before initiating the reaction with the substrate.

[2] = mouse L-M cell monolayers, 3 hour incubation with 14C acetate; read-out: IC50 in inhibiting HMG-CoA reductase

## CCC(C)C(=O)O[C@H]1C[C@@H](C)C[C@@H]2C=C[C@H](C)[C@H](CC[C@@H]3C[C@@H](O)CC(=O)O3)[C@@H]12 (stereo partly drawn) [Compound II]
Cholesterol synthesis; dose 0.15 mg/kg by stomach tube
  % Inhibition: 38%
Cholesterol synthesis; dose 0.6 mg/kg by stomach tube
  % Inhibition: 51%
Cholesterol synthesis; dose 1.2 mg/kg by stomach tube
  % Inhibition: 70%
Mouse L―M cells; [2]
  IC50: 0.017 µM

## CCC(C)C(=O)OC1CC(C)CC2C=CC(C)C(CCC(O)CC(O)CC(=O)O)C21 (stereo not drawn) [Compound IV]
[1]
  stability of hydroxy acid on standing: slowly reverts to the lactone

## CCC(C)C(=O)O[C@H]1C[C@@H](C)C=C2C=C[C@H](C)[C@H](CC[C@@H]3C[C@@H](O)CC(=O)O3)[C@H]21 (stereo partly drawn) [Compound I]
Mouse L―M cells; read-out: IC50 in inhibiting HMG-CoA reductase; mouse L-M cell monolayers, 3 hour incubation with 14C acetate
  IC50: 0.022 µM

## CC[C@H](C)C(=O)O[C@H]1CCC=C2C=C[C@H](C)[C@H](CC[C@@H]3C[C@@H](O)CC(=O)O3)[C@H]21 [ML236B, compactin, reference compound]
HMG-CoA Reductase
  IC50: 0.0054 µM
Mouse L―M cells; [2]
  IC50: 0.046 µM

## CCC(C)C(=O)O[C@H]1C[C@@H](C)C[C@@H]2C=C[C@H](C)[C@H](CC[C@@H](O)C[C@@H](O)CC(=O)O)[C@@H]12 (stereo partly drawn) [sodium salt of Compound IV]
HMG-CoA Reductase
  IC50: 0.0027 µM
